Results taken from PMC9170106, “Pre-clinical evaluation of LASSBio-1491: From in vitro pharmacokinetic study to in vivo leishmanicidal activity” (PLoS ONE, 2022).

How the values were obtained:
spleen cells = assay: Cytotoxicity against spleen cells (propidium iodide); conditions: Mus musculus, 24 h
Description: To carry out the suspension preparation of spleen cells, BALB/c mice were euthanized, and an incision was made to remove the spleen. The spleens were macerated using the end of the plungers from a 1 mL syringe in a 70 μm strainer placed in a Petri dish containing RPMI medium. […] After incubation for 4 min at room temperature, the cells were washed with RPMI medium. Subsequently, samples from three animals were pooled and the cell suspension was passed through a 40 μm strainer. Cells were counted in a Neubauer chamber and splenocytes were plated at a concentration of 5 x 10^5 cells per well in a 96-well culture plate. […] Moreover, spleen cells were also cultured just with medium (free of compounds or vehicle) or with DMSO 0.1%. […] After, the propidium iodide incorporation was performed according to the instructions of the Propidium Iodide Kit (Sigma, Copenhagen, Denmark). The splenocytes were analyzed in a FACS Canto II flow cytometer. The data files were saved using FACS Diva software and data analysis was done using Flow Jo software. […] Data obtained from experiments were expressed as the mean ± standard error of the mean (S.E.M.) of spleen died cells and statistical differences between the treated and the vehicle groups of experiments were evaluated by ANOVA and Dunnett hoc tests.

[1] = system: L. major promastigote 5-ASKH substrain; assay: In vitro activity against promastigotes, 5-ASKH; format: cell-based, Leishmania major; conditions: Leishmania major
Description: (§1) L. major promastigotes LV39 (MRHO/SU/59/P) were obtained from João […] Preto Medical School- USP. L. major IOC/[…] promastigotes (MHOM/SU/1973/5-ASKH) were obtained from Leishmania collection of the Oswaldo Cruz Institute-Fiocruz. L. major promastigotes LV39 (MRHO/SU/59/P) and L. major IOC/[…] (MHOM/SU/1973/5-ASKH) were grown in a Schneider's medium (Sigma-Aldrich, St. […] The determination of the leishmanicidal activity of LASSBio-1491 against L. major promastigotes was carried out according to the methodology described by […] and colleagues (1996). […] After 48h of incubation in a Biochemical Oxygen Demand (B.O.D.) incubator, the promastigotes were counted using a hemocytometer. The results obtained were expressed as the mean ± S.E.M. of the number of promastigotes from triplicate cultures of representative assays, with the data analyzed by ANOVA and Dunnett hoc tests, considering a significance level of p < 0.05.

[2] = system: L. major promastigote LV39 substrain; assay: In vitro activity against promastigotes, LV39; format: cell-based; conditions: Leishmania major
Description: as §1

[3] = system: L. major amasitigote 5-ASKH substrain; assay: In vitro activity against intramacrophage amastigotes, 5-ASKH; format: cell-based; conditions: Leishmania major
Description: (§2) Briefly, female BALB/c mice (6 to 8 weeks old) received 1 mL sterile of 3% sodium thioglycolate by intraperitoneal route (i.p.) and were euthanized after 4 days. The intraperitoneal lavage was collected from the peritoneal cavity of mice using sterile PBS and cells were counted in a hemocytometer. Peritoneal adherent cells (macrophages) were plated at a concentration of 2 x 10^5 cells per well in 24-well culture plates containing glass coverslips. Subsequently, L. major promastigotes (harvested after the third passage) were added at a concentration of 2 x 10^6 parasites per well, aiming to infect the macrophages. […] After 24 hours in an incubator at 37 °C and 5% CO2, the coverslips were washed with PBS and stained with Giemsa-May Grünwald. The number of amastigotes in 100 macrophages was determined by counting using optical microscope (100x objective). Furthermore, the cell culture supernatant was also collected for nitrite measurement using the Griess reaction, an indirect way of determining the concentration of nitric oxide in the supernatant of infected macrophages from the experimental groups. The results obtained were expressed as the mean ± S.E.M. of the number of amastigotes or nitrite concentration from duplicate cultures of representative assays, with the data analyzed by ANOVA and Dunnett hoc tests, considering a significance level of p < 0.05. In addition, the linear regression analysis from the Kc values at employed concentrations was used to determine the IC50.

[4] = system: L. major amastigote LV39 substrain; assay: In vitro activity against intramacrophage amastigotes, LV39; format: cell-based; conditions: Leishmania major
Description: as §2

[5] = system: peritoneal macrophages infected with L. major LV39; assay: Nitrite measurement (Griess reaction) in infected macrophages; format: cell-based, BALB/c mice; conditions: BALB/c macrophages infected with L. major LV39
Description: as §2, with “In addition, the linear regression analysis from the Kc values at employed concentrations was used to determine the IC50.” left out

PAMPA-GIT permeability = conditions: for Classification / Fa experimental: GIT-PAMPA; for Fa experimental: absorbed fraction
Description: (§3) The parallel artificial membrane permeability assay uses 96-well plate in a “sandwich” type system, where one plate overlaps the other (PAMPA). […] The lipid mixture that impregnates the PVDF filter has a different constitution for the permeability tests for the blood-brain barrier (Brain lipid from pig extract in dodecane) and gastro-intestinal tract (L-α soy phosphatidylcholine in dodecane). In the PAMPA BBB and TGI assays, the optical density values obtained in the reading at each selected wavelength, for each of the compounds were analyzed in comparison with the values of several controls. In the case of the BBB, these values were used to elaborate an equation and determine the permeability coefficient (Pe), using a previously elaborated spreadsheet, and, for the TGI, these values were used to determine the absorbed fraction (Fa%), both using the Excel® program.

L. major LV39 = assay: In vivo activity against Leishmania major LV39 substrain; parameters: species or system BALB/c mice; conditions: LASSBio-1491 10 μmol/Kg/day, glucantime 30 μmol/Kg/day x 28 days, i.p.
Description: Thus, 6-week-old female BALB/c mice weighing approximately 20 g were used. […] Briefly, ketamine (80mg/kg) and xylazine (8 mg/kg) were simultaneously used to anesthetize the mice by intraperitoneal injection. The promastigotes of L. major LV39 substrain in the stationary phase, harvested after the third passage (obtained from parasites frozen), were inoculated subcutaneously at a concentration of 1x 10^5 parasites in the right ear of mice. […] The size of the lesions was measured using a pachymeter. Thiopental (150 mg/kg, i.p.) was used to euthanize the mice and the quantitative limiting-dilution assay was used to determine the parasite burden of infected ears and draining lymph nodes. The results obtained from experiments were expressed as the mean ± S.E.M. with the data analyzed (size of the lesions or parasite burden) by ANOVA and Dunnett hoc tests, considering a significance level of p < 0.05.

[6] = GIT-PAMPA, ref literature, cited from earlier work; for Fa literature: absorbed fraction
PAMPA-BBB permeability = conditions: for Classification: PAMPA-BBB
Description: as §3

In the case of `N=C(N)c1ccc(OCCCCCOc2ccc(C(=N)N)cc2)cc1` [Pentamidine, reference compound], the IC50 (spleen cells) is reported as > 100 µM, the IC50 ([1]; 48 h) is reported as 0.8 ± 0.1 µM and the Emax ([1]; read-out: Maximum effect (% ± S.E.M.)) is reported as 72.6 ± 2%. The IC50 ([2]; promastigote LV39, 48 h) was 5.7 ± 0.2 µM, the Emax ([2]; promastigote LV39, read-out: Maximum effect (% ± S.E.M.)) was 88.1 ± 0.1% and the IC50 ([3]; Macrophage, amastigote 5-ASKH in macrophages, 24 h) was 17.1 ± 5.6 µM. It also gave an Emax ([3]; amastigote 5-ASKH, read-out: Maximum effect (% ± S.E.M.)) of 53.8 ± 1.1%, an IC50 ([4]; Macrophage, amastigote LV39 in macrophages, 24 h) of 8.1 ± 0.9 µM and an Emax ([4]; amastigote LV39, read-out: Maximum effect (% ± S.E.M.)) of 63.2 ± 2.9%. For the same molecule, the “NO production (nitrite)” value [5] was “did not”.
For `CNC(=C[N+](=O)[O-])NCCSCc1ccc(CN(C)C)o1` [Ranitidine], the Classification (PAMPA-GIT permeability) was “Medium (medium permeability (30–69%))” and the Fa experimental (PAMPA-GIT permeability) was 38.29%.
With “meglumine antimoniate [glucantime, reference compound]” the lesion size (L. major LV39) was “reduced lesion size only between days 7 and 17”, the “parasite load in draining lymph node” value (L. major LV39) was “reduce the parasite load” and the “parasite load in infected ear” value (L. major LV39) was “reduce the parasite load”.
In the case of `CC(C)NCC(O)COc1ccc(CC(N)=O)cc1` (stereo not drawn) [Atenolol], the Fa experimental (PAMPA-GIT permeability) is listed as 2.26% and the Fa literature [6] is listed as 5.2%.
In the case of `Nc1nc2c(ncn2COCCO)c(=O)[nH]1` [Acyclovir], the Classification (PAMPA-GIT permeability) is reported as “Low (low permeability (0–29%))” and the Fa experimental (PAMPA-GIT permeability) is reported as 1.70%.
In the case of `O=C(O)Cc1ccccc1Nc1c(Cl)cccc1Cl` [Diclofenac], the Classification (PAMPA-GIT permeability) is given as “High (high intestinal permeability (70–100%))”, the Fa experimental (PAMPA-GIT permeability) is given as 99.28% and the Fa literature [6] is given as 100%. The Pe literature [6] was 12.5 10^−6 cm s^-1.
In the case of `CCn1cc(C(=O)O)c(=O)c2cc(F)c(N3CCNCC3)nc21` [Enoxacin, reference compound], the Classification (PAMPA-BBB permeability) is reported as “CNS -”.
For `CO/N=C(\C(=O)N[C@@H]1C(=O)N2C(C(=O)O)=C(CSc3nc(=O)c(=O)[nH]n3C)CS[C@H]12)c1csc(N)n1` [Ceftriaxone], the Classification (PAMPA-GIT permeability) is given as “Low (low permeability (0–29%))”, the Fa experimental (PAMPA-GIT permeability) is given as 1.37% and the Fa literature [6] is given as 1%. For the same molecule, the Pe literature [6] was 0.1 10^−6 cm s^-1.
In the case of `O=C(O)c1cc(/N=N/c2ccc(S(=O)(=O)Nc3ccccn3)cc2)ccc1O` [Sulfasalazine], the Fa literature [6] is given as 42% and the Pe literature [6] is given as 0.3 10^−6 cm s^-1.
For `Cn1c(=O)c2c(ncn2C)n(C)c1=O` [Caffeine, reference compound], the Papp (PAMPA-BBB permeability; PAMPA) was 0.81 ×10⁻⁶ cm/s and the Classification (PAMPA-BBB permeability) was “CNS -”.
In the case of `CCn1cc(C(=O)O)c(=O)c2cc(F)c(N3CCNCC3)cc21` [Norfloxacin], the Papp (PAMPA-GIT permeability; PAMPA) is reported as 0.7 ×10⁻⁶ cm/s.
